In patent US8232308B2, “Methods for treating a disease in which Rho kinase is involved” (UBE Industries, Ltd., priority 2003, dated 2012) one finds melting point data, which are given here for 13 molecules.

The structures appear in SMILES notation. Counter-ions that a name gives are not always drawn.

By melting point is commonly meant the temperature, or range, at which the solid turns liquid. The molecule `CC(C)(N)c1ccc(-c2ccc3cn[nH]c3c2)cc1` (as salt: hydrochloride) [Compound 5-37, 6-[4-(1-Amino-1-methylethyl)phenyl]-1H-indazole dihydrochloride] came in with a melting point of 265 to 269 °C.

Regarding `CCC(N)(CC)c1ccc(-c2ccc3[nH]ncc3c2N)cc1` (as salt: hydrochloride) [Compound 5-22, 4-Araino-5-[4-(1-amino-1-ethylpropyl)phenyl]-1H-indazole trihydrochloride], the melting point was 197 to 199 °C (dec.).

`Nc1c(-c2ccc(C3(N)CCCC3)cc2)ccc2[nH]ncc12` (as salt: hydrochloride) [Compound 5-21, 4-Amino-5-[4-(1-aminocyclopentyl)phenyl]-1H-indazole dihydrochloride] showed a melting point of 234 to 237 °C.

As for `COc1c(-c2ccc(C(C)(C)N)cc2)ccc2[nH]ncc12` (as salt: hydrochloride) [Compound 5-44, 5-[4-(1-Amino-1-methylethyl)phenyl]-4-methoxy-1H-indazole dihydrochloride], the melting point was 258 to 261 °C (dec.).

Regarding `CC(C)(N)c1ccc(-c2ccc3[nH]ncc3c2N2CCCC2)cc1` (as salt: hydrochloride) [Compound 5-42, 5-[4-(1-Amino-1-methylethyl)phenyl]-4-(pyrrolidin-1-yl)-1H-indazole trihydrochloride], the melting point was 218 to 224 °C (dec.).

`CCCOc1c(-c2ccc(C(C)(C)N)cc2)ccc2[nH]ncc12` (as salt: hydrochloride) [Compound 5-52, 5-[4-(1-Amino-1-methylethyl)phenyl]-4-n-propoxy-1H-indazole dihydrochloride]: the melting point is 237 to 243 °C (dec.).

The molecule `CCOc1c(-c2ccc(C(C)(C)N)cn2)ccc2[nH]ncc12` (as salt: hydrochloride) [Compound 5-47, 5-[5-(1-Amino-1-methylethyl)pyridin-2-yl]-4-ethoxy-1H-indazole trihydrochloride] displayed a melting point of 198 to 201 °C.

Take `COc1c(-c2ccc(C(C)(C)N)cn2)ccc2[nH]ncc12` (as salt: hydrochloride) [Compound 5-45, 5-[5-(1-Amino-1-methylethyl)pyridin-2-yl]-4-methoxy-1H-indazole trihydrochloride]: the melting point was 195 to 201 °C (dec.).

For the molecule `CC(C)(N)c1ccc(-c2ccc3[nH]nc(C(N)=O)c3c2)cc1` (as salt: hydrochloride) [Compound 5-10, 3-Aminocarbonyl-5-[4-(1-amino-1-methylethyl)phenyl]-1H-indazole monohydrochloride], the melting point is 258 to 261 °C (dec.).

As to `CCC(N)(CC)c1ccc(-c2ccc3[nH]ncc3c2OC)nc1` (as salt: hydrochloride) [Compound 5-51, 5-[5-(1-Amino-1-ethylpropyl)pyridin-2-yl]-4-methoxy-1H-indazole trihydrochloride], the melting point was 204 to 206 °C (dec.).

Take `CC(C)(C)OC(=O)NC(C)(C)c1ccc(-c2ccc3nn(C4CCCCO4)cc3c2-c2cc[nH]n2)cc1` (stereo not shown) [Compound 30, 5-[4-(1-tert-butoxycarbonylamino-1-methylethyl)phenyl]-4-(pyrazol-3-yl)-2-(tetrahydropyran-2-yl)-2H-indazole]: the melting point was in the range of 99 to 105 °C.

Regarding `CC(C)(N)c1ccc(-c2ccc3[nH]ncc3c2)nc1` (as salt: hydrochloride) [Compound 5-3, 5-[5-(1-Amino-1-methylethyl)pyridin-2-yl]-1H-indazole trihydrochloride], the melting point was 271 to 273 °C (dec.).

Molecule `CC(C)(N)c1ccc(-c2ccc3[nH]ncc3c2OC(F)F)nc1` (as salt: hydrochloride) [Compound 5-59, 5-[5-(1-Amino-1-methylethyl)pyridin-2-yl]-4-difluoromethoxy-1H-indazole trihydrochloride] registered a melting point of 170 to 173 °C.
